Consider 68 compounds from patent US9708270B2, “Substituted spiropiperidinyl compounds useful as GPR120 agonists” (Merck Sharp & Dohme Corp., priority 2012, dated 2017).

This assay concerns the target human GPR120 (Homo sapiens (Human), UniProt Q5NUL3). In words: FLIPR assay: intracellular calcium in CHO cells expressing human GPR120. The format is cell-based. Particulars: for EC50: FLIPR calcium assay, CHO cells expressing human GPR120, agonist action. Here is the method:
All compounds were tested under the FLIPR assay unless otherwise indicated.
Primers were synthesized in the domains on the opposite sides of the base sequences of the ORFs of the known GPCR and GPR120 in GenBank Accession NOs. […] The base sequences of the primers used are described below. The restriction enzymes, BamHI and EcoRI, recognition sites were introduced for subcloning, respectively.
As samples for PCR, human small intestine Marathon-ready cDNA (CLONTECH, current corporate name: TaKaRa) and cDMA obtained by reverse transcription of mouse BAT-derived RNA were used for human and mouse GPR120 receptor genes, respectively.
Using KOD Plus (TOYOBO) for PCR, 30 cycles of 94° C. for 2 minutes, 94° C. for 15 seconds, 55° C. for 30 seconds and 68° C. for 1 minute were carried out to effect reaction, followed by addition of 0.5 units of ExTaq (TaKaRa) and incubation at 72° C. for 10 minutes to carry out A-addition reaction to terminals. For mouse PCR, 35 cycles were carried out on the condition of a final DMSO concentration of 2%.
Cloning of amplified PCR products was carried out using pCR2.1-TOPO TA cloning kit (Invitrogen). For verification of base sequences, electrophoresis was carried out using BigDye Terminator Cycle Sequencing Ready Reaction Kit Ver.
The GPR120 receptor genes cloned into pCR2.1-TOPO vectors, into which the restriction enzymes, BamHI and EcoRI, recognition sites were introduced, were excised from the vectors by the enzymes and subcloned into the BamHI and EcoRI recognition sites of eukaryotic expression vector EF1/V5-His B (Invitrogen).
Test 2: Production of Expression Cells
Using Lipofectamine 2000 (Invitrogen), cDNA of GPR120 receptor was transfected into CHO/NFAT-BLA cells, and drug-resistant cells were isolated to obtain GPR120 stable expression strains. The GPR120-expressed CHO cells were cultured in DMEM/F12 medium containing 10% fetal bovine serum, 100 units/ml penicillin, 0.1 mg/ml streptomycin sulfate, 250 μg/ml Zeocin, 500 μg/mL Geneticin and 15 mM HEPES.
Test 3: Measurement of Intracellular Calcium Concentration
To the cells was added the test compound diluted with HBSS solution containing 20 mM HEPES and 2.5 mM probenecid. Variations in the intracellular calcium concentration were measured by Fluorescence Imaging Plate Reader (FLIPR; Molecular Devices) to examine the agonist action, and EC50 values were calculated. […]

Sequence of human GPR120 (Q5NUL3 whole entry): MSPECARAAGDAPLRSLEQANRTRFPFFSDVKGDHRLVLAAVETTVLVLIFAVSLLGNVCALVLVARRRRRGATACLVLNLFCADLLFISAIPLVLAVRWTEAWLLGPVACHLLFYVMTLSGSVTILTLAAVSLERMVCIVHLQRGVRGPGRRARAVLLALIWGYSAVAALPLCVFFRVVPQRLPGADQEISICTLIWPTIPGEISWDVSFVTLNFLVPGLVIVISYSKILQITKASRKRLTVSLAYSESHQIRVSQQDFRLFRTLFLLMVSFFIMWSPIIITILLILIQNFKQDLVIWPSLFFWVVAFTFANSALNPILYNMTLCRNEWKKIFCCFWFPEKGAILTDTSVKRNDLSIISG

In the case of `COc1ccc(Cl)c(N2CCC3(CCC(CC(=O)O)CC3)CC2)c1` [Example 8], the EC50 stood at 1670 nM. In the case of `Cc1ccc(Cl)c(N2CCC3(CCC(CC(=O)O)CC3)CC2)c1` [Example 9], the EC50 turned out to be 2180 nM. Regarding `O=C(O)CC1CCC2(CC1)CCN(c1cc([N+](=O)[O-])ccc1Cl)CC2` [Example 10], the EC50 stood at 1700 nM. With `CC1(C)Cc2cc(Cl)cc(N3CCC4(CCC(CC(=O)O)CC4)CC3)c2O1` [Example 11], the EC50 turned out to be 2850 nM. For `O=C(O)CC1CCC2(CC1)CCN(c1cc(F)ccc1C(F)F)CC2` [Example 12], the EC50 was determined as 2420 nM.

As for `Cc1ccc(C#N)c(N2CCC3(CCC(CC(=O)O)CC3)CC2)c1` [Example 13], the EC50 stood at 2140 nM.

For the compound `COc1ccc(Cl)cc1N1CCC2(CCC(CC(=O)O)CC2)CC1` [Example 14], the concentration giving a half-maximal response (EC50) was 3100 nM. As for `COc1ccc(C(F)(F)F)cc1N1CCC2(CCC(CC(=O)O)CC2)CC1` [Example 15], the EC50 stood at 2360 nM. For the compound `O=C(O)CC1CCC2(CC1)CCN(c1cc(C(F)(F)F)ccc1F)CC2` [Example 16], the EC50 was 652 nM.

On to `N#Cc1ccc(F)cc1N1CCC2(CCC(CC(=O)O)CC2)CC1` [Example 17], for which the EC50 is 2360 nM.

Turning to `CC(C)Oc1ccc(Cl)c(N2CCC3(CCC(CC(=O)O)CC3)CC2)c1` [Example 18], the EC50 was determined as 530 nM.

Regarding `Cc1cc(C)cc(N2CCC3(CCC(CC(=O)O)CC3)CC2)c1` [Example 19], the EC50 was determined as 948 nM.

With `CCC(=O)c1ccc(F)c(N2CCC3(CCC(CC(=O)O)CC3)CC2)c1` [Example 20], the EC50 is 1660 nM.

`O=C(O)CC1CCC2(CC1)CCN(c1cc(C(F)(F)F)ccc1C(F)(F)F)CC2` [Example 21]: the EC50 was found to be 3270 nM. For `O=C(O)CC1CCC2(CC1)CCN(c1cc(C(F)F)cc(C(F)F)c1)CC2` [Example 22], the EC50 stood at 3010 nM. As for `CC(C)(C)c1cc(N2CCC3(CCC(CC(=O)O)CC3)CC2)cc(C(F)(F)F)c1` [Example 23], the EC50 was found to be 3750 nM. For `CC(C)c1cc(C#N)cc(N2CCC3(CCC(CC(=O)O)CC3)CC2)c1` [Example 24], the EC50 stood at 3460 nM. As to `N#Cc1cc(SC(F)(F)F)cc(N2CCC3(CCC(CC(=O)O)CC3)CC2)c1` [Example 25], the EC50 came out at 1150 nM. Consider `CSc1nc(N2CCC3(CCC(CC(=O)O)CC3)CC2)cc(C(F)(F)F)n1` [Example 26], for which the EC50 was 8300 nM. Besides, the “Human GPR120 % activation” value (at 8300 nM, 100% activation defined by reference compound of U.S. Pat. No. 8,367,708) amounted to 62%.

Consider `O=C(O)CC1CCC2(CC1)CCN(c1cc(C(F)F)cc(C(F)F)n1)CC2` [Example 27], for which the EC50 came out at 2990 nM. For the compound `Cc1cc(F)cc(N2CCC3(CCC(CC(=O)O)CC3)CC2)c1` [Example 28], the EC50 amounted to 3040 nM. For `O=C(O)CC1CCC2(CC1)CCN(c1cc(F)cc(Cl)c1)CC2` [Example 29], the EC50 is 1790 nM. Take `O=C(O)CC1CCC2(CC1)CCN(c1cc(Cl)cc(Cl)c1)CC2` [Example 30]: the EC50 turned out to be 878 nM. As to `O=C(O)CC1CCC2(CC1)CCN(c1cc(F)cc(C(F)(F)F)c1)CC2` [Example 31], the EC50 is 1220 nM. Take `O=C(O)CC1CCC2(CC1)CCN(c1cc(C(F)(F)F)cc(C(F)(F)F)c1)CC2` [Example 32]: the EC50 was determined as 2150 nM. With `O=C(O)CC1CCC2(CC1)CCN(c1cc(C(F)(F)F)ccn1)CC2` [Example 33], the EC50 turned out to be 3060 nM. Regarding `Cc1cc(N2CCC3(CCC(CC(=O)O)CC3)CC2)cc(C(F)(F)F)c1` [Example 34], the EC50 turned out to be 671 nM. In the case of `N#Cc1ccc(OC(F)(F)F)cc1N1CCC2(CCC(CC(=O)O)CC2)CC1` [Example 35], the EC50 turned out to be 431 nM.

`O=C(O)CC1CCC2(CC1)CCN(c1cc(Cl)cc(C(F)(F)F)c1)CC2` [Example 36]: the EC50 came out at 832 nM. As for `Cc1cc(F)c(Cl)c(N2CCC3(CCC(CC(=O)O)CC3)CC2)c1` [Example 37], the EC50 is 2170 nM. Turning to `O=C(O)CC1CCC2(CC1)CCN(c1cc(F)cc(Cl)c1F)CC2` [Example 38], the EC50 was 2150 nM. Same read-out and setting: the result for `O=C(O)CC1CCC2(CC1)CCN(c1cc(Cl)cc(F)c1F)CC2` [Example 39] reads 1800 nM; that for `Cc1cc(Cl)cc(N2CCC3(CCC(CC(=O)O)CC3)CC2)c1C#N` [Example 40], 2540 nM. For `CSc1ccc(OC(F)(F)F)cc1N1CCC2(CCC(CC(=O)O)CC2)CC1` [Example 41], the EC50 was 1690 nM. The same measure, in the same setting: as for `Cc1ccc(C(F)(F)F)cc1N1CCC2(CCC(CC(=O)O)CC2)CC1` [Example 42], the figure is 749 nM. On to `Cc1cc(C)c(Cl)c(N2CCC3(CCC(CC(=O)O)CC3)CC2)c1` [Example 43], for which the EC50 was 2520 nM. On to `CCc1cc(CC)cc(N2CCC3(CCC(CC(=O)O)CC3)CC2)c1` [Example 44], for which the EC50 amounted to 2580 nM. On the same count and under the same terms, the result for `Cc1cc(Cl)cc(N2CCC3(CCC(CC(=O)O)CC3)CC2)c1` [Example 45] reads 1170 nM; that for `CCc1cc(C)cc(N2CCC3(CCC(CC(=O)O)CC3)CC2)c1` [Example 46], 1290 nM; that for `O=C(O)CC1CCC2(CC1)CCN(c1cc(OC3CCC3)ccc1Cl)CC2` [Example 47], 330 nM. Take `Cc1cc(OC(F)(F)F)cc(N2CCC3(CCC(CC(=O)O)CC3)CC2)c1` [Example 48]: the concentration for a half-maximal effect (EC50) is 377 nM. `COc1cc(OC(F)(F)F)cc(N2CCC3(CCC(CC(=O)O)CC3)CC2)c1` [Example 49]: the concentration giving a half-maximal response (EC50) was 449 nM.

Take `N#Cc1cc(OC(F)(F)F)cc(N2CCC3(CCC(CC(=O)O)CC3)CC2)c1` [Example 51]: the EC50 was 617 nM. Regarding `CC(C)Oc1cc(Cl)cc(N2CCC3(CCC(CC(=O)O)CC3)CC2)c1` [Example 52], the EC50 stood at 641 nM.

In the case of `CSc1cc(N2CCC3(CCC(CC(=O)O)CC3)CC2)cc(C(F)(F)F)c1` [Example 53], the EC50 is 667 nM. Still for that read-out and setting: the result for `O=C(O)CC1CCC2(CC1)CCN(c1cc(OC(F)(F)F)ccc1O)CC2` [Example 54] reads 681 nM; that for `O=C(O)CC1CCC2(CC1)CCN(c1cc(OC3CC3)ccc1Cl)CC2` [Example 55], 869 nM.

Take `CC(C)Oc1cc(OC(F)(F)F)cc(N2CCC3(CCC(CC(=O)O)CC3)CC2)c1` [Example 56]: the EC50 was 1220 nM.

With `N#Cc1ccc(OC2CCC2)cc1N1CCC2(CCC(CC(=O)O)CC2)CC1` [Example 57], the EC50 was determined as 1330 nM.

For the compound `Cc1ccc(C)c(N2CCC3(CCC(CC(=O)O)CC3)CC2)c1` [Example 58], the EC50 is 1440 nM. Take `O=C(O)CC1CCC2(CC1)CCN(c1cc(OC(F)(F)F)cc(C(F)(F)F)c1)CC2` [Example 59]: the EC50 was 1490 nM. `CC(C)Oc1cc(F)cc(N2CCC3(CCC(CC(=O)O)CC3)CC2)c1` [Example 60]: the half-maximal effective concentration (EC50) is 1550 nM.

`O=C(O)CC1CCC2(CC1)CCN(c1cc(OC(F)F)ccc1Cl)CC2` [Example 61]: the EC50 came to 1960 nM.

Consider `O=C(O)CC1CCC2(CC1)CCN(c1cc(OC3CC3)ccc1F)CC2` [Example 62], for which the EC50 turned out to be 2150 nM. On to `Cc1ccc(F)c(N2CCC3(CCC(CC(=O)O)CC3)CC2)c1` [Example 63], for which the 50% effective concentration (EC50) is 2320 nM. As to `COc1cccc(N2CCC3(CCC(CC(=O)O)CC3)CC2)c1` [Example 64], the EC50 was 2400 nM. As to `Cc1ccc(C#N)cc1N1CCC2(CCC(CC(=O)O)CC2)CC1` [Example 65], the EC50 worked out at 2500 nM. `Cc1cc(F)cc(N2CCC3(CCC(CC(=O)O)CC3)CC2)c1Cl` [Example 68]: the EC50 was found to be 2860 nM.

As to `CN(C)c1cccc(N2CCC3(CCC(CC(=O)O)CC3)CC2)c1` [Example 69], the EC50 was 2940 nM. As for `Cc1cccc(N2CCC3(CCC(CC(=O)O)CC3)CC2)c1` [Example 70], the EC50 is 2950 nM.

For `Cc1cc(C#N)cc(N2CCC3(CCC(CC(=O)O)CC3)CC2)c1` [Example 71], the EC50 turned out to be 2960 nM. Take `COc1cc(C)cc(N2CCC3(CCC(CC(=O)O)CC3)CC2)c1` [Example 72]: the EC50 is 3060 nM. With `O=C(O)CC1CCC2(CC1)CCN(c1cc(C(F)(F)F)ccc1CO)CC2` [Example 73], the EC50 amounted to 3170 nM.

Regarding `COc1cc(N2CCC3(CCC(CC(=O)O)CC3)CC2)c(F)cn1` [Example 74], the EC50 was found to be 3420 nM. Regarding `COCCOc1cc(Cl)cc(N2CCC3(CCC(CC(=O)O)CC3)CC2)c1` [Example 75], the EC50 turned out to be 3630 nM. As to `O=C(O)CC1CCC2(CC1)CCN(c1ccc(-c3ccccc3)cc1)CC2` [Example 77], the EC50 was determined as 4940 nM. On to `Cc1cccnc1Oc1ccc(C#N)c(N2CCC3(CCC(CC(=O)O)CC3)CC2)c1` [Example 79], for which the EC50 was 6570 nM. Regarding `COCCOc1ccc(Cl)c(N2CCC3(CCC(CC(=O)O)CC3)CC2)c1` [Example 80], the EC50 is 6970 nM.
